Assay results taken from patent US20210379153A1, “COMBINATION THERAPIES COMPRISING SIRP ALPHA-BASED CHIMERIC PROTEINS” (Shattuck Labs, Inc., priority 2018, published 2021).

How the values were obtained:
parental CHOK1 cells = experiment: Flow cytometry binding to parental CHOK1 cells
Description: Scale is shown and yellow arrows correspond with each identified monomer. A schematic of the hexamer species is shown to the right, depicting dimerization of the Fc domain and trimerization of the CD40L domain. […] Recombinant hSIRPα-Fc, hCD40L-Fc, and hIgG1 were used as positive controls. […] In both panels, the CHOK1 Parental is on the left and the CHOK1/hCD47 is on the right. […] For both graphs, the CHOK1 Parental is on the bottom. […] In this figure, the control is the top curve, the SIRPα-Fc-CD40L is the middle curve, and the anti-CD47 is the bottom curve.
The extracellular domain (ECD) of SIRPα and the ECD of CD40L were fused via an antibody Fc domain to generate SIRPαECD-Fc-CD40LECD chimeric proteins. When human proteins were used, the chimeric protein is referred to as hSIRPα-Fc-CD40L; when murine proteins were used, the chimeric protein is referred to as and mSIRPα-Fc-CD40L. […] The purified protein was then analyzed for the presence of each individual domain by Western blotting using anti-SIRPα, anti-Fc, and anti-CD40L antibodies (FIG. 3A, bottom). […] Next, binding affinities for SIRPα-Fc-CD40L to recombinant CD47, CD40, or Fc receptors were evaluated by surface plasmon resonance (SPR). […] A functional ELISA evaluated whether SIRPα-Fc-CD40L could outcompete a commercially available single-sided SIRPα-Fc control for binding to recombinant CD47 (FIG. 3H).

[1] = tested on: type I interferon regulatory genes INFα1 and IFNβ1; experiment: Type I interferon response in Raji cell:macrophage co-cultures; type: cell-based, human
Description: (§1) FIG. 8D: Macrophage:Toledo lymphoma co-cultures were harvested 2 hours into phagocytosis assays in the presence of rituximab ([…]), SIRPα-Fc-CD40L ([…]), or the combination of both agents. Macrophages were isolated by CD11b+ FACS, RNA was prepared, cDNA synthesized, and gene expression (IFNa1, IFNb1, CD80, and CD86) assessed by qRT-PCR. Fold change was calculated using DDCT and values obtained from the housekeeping gene ACTB, and the corresponding values from untreated samples. […] After 2 hours, co-cultures were isolated from tissue culture vessels and were stained with a fluorescently conjugated CD11b antibody to discriminate macrophages. Cells were then assessed by flow cytometry for the co-localization of fluorescent signal from both cells types. Identical assays were set up where macrophages were pre-incubated for 1 hour with 20 μg/mL of a commercially available Fc block cocktail or with 20 μg/mL of a CD40 blocking antibody or with 5 μg/mL of a calreticulin blocking peptide. FIG. 8G: RAW 264.7-Lucia ISG cells were cultured with A20 lymphoma cells in the presence of […] of mSIRPα-Fc-CD40L, recombinant Fc-mCD40L, mSIRPα-Fc, or their combination, 1 mg/mL anti-mCD20, or the combination of mSIRPα-Fc-CD40L and anti-mCD20. After 24-hours type I interferon induced luminescence was assessed using a luminometer. The maximum luminescence (RLU) from each experiment was set to 1, and all other samples were normalized accordingly. Values from repeat experiments are shown.

[2] = tested on: IFNα1, IFNβ1, CD80 and CD86 expression in macrophages; experiment: qRT-PCR of macrophages sorted from macrophage:Toledo lymphoma co-cultures; type: cell-based, human; set-up: macrophage activation and type I interferon gene expression: dose or concentration left out as unconfirmed
Description: as §1
RNA was prepared from macrophages isolated using fluorescent activated cell sorting (FACS) from SIRPα-Fc-CD40L/Rituximab treated co-cultures macrophages and Toledo lymphoma cells. The RNA was assessed by qRT-PCR for expression of IFNα1 and IFNβ1, and the macrophage activation markers CD80 and CD86.

[3] = tested on: MCF7 (low Her2-expressing breast cancer cell line); experiment: Macrophage engulfment of MCF7 cells; type: cell-based, human; details: monotherapy
[4] = tested on: human donor red blood cells (RBCs); experiment: In vitro hemolysis assay, human red blood cells; type: cell-based
Description: FIG. 22B is a graph showing RBCs and test agents that were incubated at 37° C. for 24 hours and then the media was assessed at OD490 for changes in absorbance due to hemoglobin being released from lysing RBCs. […] FIG. 22D are graphs showing that peripheral blood was isolated from mice receiving three IP doses (300 μg) of the murine SIRPα-Fc-CD40L surrogate (arrows). Cell populations were assessed by flow cytometry and included CD20+ B cells, CD110+, CD4+/CD11c+, and CD8+/CD11c+ dendritic cells.
(§2) However, the in vitro systems used to test this question have significant limitations, including a complete lack of macrophages in the test system.

[5] = tested on: cynomolgus macaque erythrocytes; experiment: In vitro hemolysis, cynomolgus macaque erythrocytes; type: cell-based
Description: as §2

[6] = Repeat-dose safety and activity study in cynomolgus macaques; type: in vivo
Description: FIG. 21 is a graph showing cynomolgus macaques that were treated with vehicle, or 0.1, 1, 10, and 40 mg/kg of SIRPα-Fc-CD40L. Blood chemistry analysis assessed peripheral erythrocyte counts, hemoglobin levels, and hematocrit. In addition, the fold-change in lymphocyte count from pre-dose to 24 hours post-dose is shown.
The experiments of this example tested the safety and activity of the human SIRPα-Fc-CD40L chimeric protein following repeat doses in cynomolgus macaques. Briefly, naïve cynomolgus macaques were administered the human SIRPα-Fc-CD40L chimeric protein by intravenous infusion every week, for five consecutive weeks, at doses of 0.1, 1, 10 and 40 mg/kg. Standard hematology and clinical chemistry parameters were collected before and after each dose.
Receptor occupancy was evaluated on circulating CD40+ lymphocytes.

## SIRPα-Fc-CD40L: generic name of the SIRPαECD-Fc-CD40LECD chimeric protein; human or murine version according to the experiment
Parental CHOK1 cells
  binding: not to parental CHOK1 cells
[1]; combination with anti-CD20 antibody
  IFNβ protein synthesis: significantly greater
[1]; combination with anti-CD20 antibody vs either component alone
  RNA expression of INFα1: significantly greater
[1]; combination with anti-CD20 antibody vs sum of alone treatments
  RNA expression of IFNβ1: greater than the sum
[2]; combination with rituximab
  induction of type I interferon genes: enhanced
[2]; monotherapy, 2 hours
  macrophage activation and type I interferon gene expression: induced macrophage activation and the expression of type I interferon genes
[3]
  phagocytosis: demonstrated monotherapy activity
[4]
  hemolysis: did not reveal evidence of hemolysis
[5]
  hemolysis: did not reveal evidence of hemolysis
[6]; before and after each dose
  total number of lymphocytes (episodic fluctuation): did not depart from the upper and lower range of normal
[6]; cynomolgus monkey, in vivo
  number of CD40+ cells in the peripheral blood: dose-dependent decrease
[6]; following each infusion
  serum cytokines/chemokines (CCL2, CXCL9, CXCL10, IL-6, IL-15, IL-17A, IL-23): dose-dependent increases
